Results reported in patent US6682927B2, “Methods and apparatus for the high through-put detection of binding interactions in vivo” (priority 1998, dated 2004).

How the values were obtained:
[1] = tested on: cells expressing the plasma membrane localized GFP construct; experiment: Control: fluorescence of cells expressing plasma membrane localized GFP; format: cell-based; conditions: ionomycin and phorbol ester added together
Method: FIG. 6. Evanescent wave excitation of fluorescent cytosolic and membrane proteins in adherent cells. (A) Schematic view of the microscope setup (see Materials and Methods section for description). (B) Fluorescent images of RBL cells that express cytosolic GFP (left; representative of 6 experiments) or plasma membrane targeted GFP (right, n=3). A myristoylation/palmitoylation sequence was fused to the N-terminal end of GFP for membrane targeting.
Fluorescent images were recorded from RBL-cells that had similar levels of expressed cytosolic or plasma membrane localized GFP constructs. The targeting of GFP to the plasma membrane utilized a fusion of the 12 amino acid palmitoylation/myristoylation plasma membrane targeting sequence from Lyn to the N-terminus of GFP (Teruel, et al. (1999) J. Neuroscience Methods 93: 37-48). The fluorescence intensity of cells with expressed cytosolic GFP (FIG. 6B) was typically 3 to 10-fold lower than the intensity of cells with expressed plasma membrane targeted GFP (FIG. 6C).
Analysis of Receptor Triggered Translocation of PKCγ-GFP in Thin Cells. […] The changes in fluorescence intensity could be followed in a series of several hundred images. […] Similar receptor-triggered fluorescence intensity oscillations could be observed in RBL cells (FIG. 7D) and 3T3 fibroblasts (data not shown).

[2] = tested on: RBL cells expressing PKCγ-YFP; experiment: E-SCAM measurement of plasma membrane translocation of PKCγ-YFP; format: cell-based, Rat; conditions: ionomycin-induced PKCγ translocation in RBL cells; data not shown
Source text: FIG. 11. E-SCAM measurement of plasma membrane translocation events in more than a thousand cells. (A) Schematic view of the Evanescent wave Single Cell Array Macroscope (E-SCAM) in which the excitation light is directly coupled into the coverslip. (B) Low magnification images of RBL, cells expressing PKCγ-YFP before (left) and after stimulation with calcium ionophore (right). […] (Bar=1 mm). (C and D) Statistical analysis of receptor-triggered fluorescence intensity changes measured in RBL-cells expressing PKCγ-YFP after stimulation by cross-linking of their FcεRI receptors with the antigen DNP-BSA. (C) Typical time courses. (D) Histogram of the maximum amplitude of fluorescence intensity changes that was measured in each of more than 1000 cells visible in the field of view.
Construction of an Evanescent wave Single Cell Array Macroscope (E-SCAM). A wide-field microscope (macroscope) was designed in similar fashion to the higher magnification system described above. Two Rodenstock 100 mm Heligon lenses were mounted below the coverslip in opposite directions to obtain a combined objective and ocular with 1:1 magnification. The second lens projected the sample image onto a 5 MHz Micromax camera made commercially available from Roper Scientific of Trenton, N.J. This lens combination has high spatial and chromatic accuracy as well as a numerical aperture of NA˜0.3 (F/1.6). […]

[3] = tested on: hippocampal astrocytes expressing PKCγ-GFP; experiment: Plasma membrane translocation of PKCγ-GFP by evanescent wave excitation; format: cell-based; conditions: glutamate 100 μM, ionomycin 2 μM
Method: FIG. 7. Plasma membrane translocation of PKCγ measured in hippocampal astrocytes by evanescent wave excitation. (A) Time series of fluorescent images of cultured hippocampal astrocytes expressing PKCγ-GFP stimulated with glutamate (100 μM; n=47). […] (B) The same experiment as in (A) but with calcium ionophore added (2 μM ionomycin; n=8). (Bars=10 μm in (A) and (B)). (C) Time course of PKCγ-GFP translocation measured as a fractional increase in fluorescence intensity and triggered by glutamate addition (100 μM, left) to a single astrocyte (left panel; n=47). (D) Similar periodic intensity changes in an RBL stably expressing PAF receptors following the addition of 100 nM PAF. Ionomycin was added at the end of each experiment (2 μM).
Cell Culturing. Rat basophilic leukemia 2H3 (RBL) cells were grown and plated as described by Oancea, et al. ((1997) J. Cell Biol. 140, 485-498) and Oancea, E. & Meyer, T. ((1998) Cell 95, 307-318). […]
Evanescent Wave Excitation and Fluorescence Microscopy (also termed Total Internal Reflection Fluorescence Microscopy or TIRFM). […] For glass coverslips, total internal reflection occurs for angles above 61° [θI,c=arcsin(n2/n1), calculated for a refractive index n1=1.52 for glass and n2=1.33 for water]. […] The space constant of the exponential decay I(z)=I(0)exp(−z/d) at a given angle can be calculated as described by Axelrod ((1981) J. Cell. Biol. 89, 141-145). […]

[4] = tested on: RBL-cells that express C1A-CaMKII and GFP-CaMKIIα; experiment: In vivo protein-protein binding assay with inducible C1A translocation domain, evanescent wave excitation; format: cell-based, Rat; conditions: PDBu 1 μM, n=3
Source text: FIG. 10. Measuring protein-protein binding interactions of cytosolic proteins using an evanescent wave excitation. (A) Schematic representation of the in vivo binding assay. Binding between Proteins X and Y can be measured by conjugating Protein X with GFP and Protein Y with an inducible plasma membrane targeting domain. […] The C1A-domain from PKCγ was used as an inducible translocation domain. […] Typical translocation traces are shown.
Cloning of GFP-Fusion Constructs and Electroporation. […]
Measuring Protein-Protein Binding Interactions with High Signal-to-Background by Evanescent Wave Excitation. Protein-protein binding interactions have been measured previously by using a dual protein fusion strategy in which a protein Y was conjugated with an inducible plasma membrane translocation domain and a protein X with a GFP-tag (FIG. 5A, ref. 40). By inducing plasma membrane translocation of the non-fluorescent protein Y, the increase in plasma membrane fluorescence from the fluorescent protein X becomes a measure for the fraction of protein X that is bound to protein Y (since it is carried along with protein Y to the plasma membrane). […]
Evanescent wave excitation was now used in combination with the same assay. […] RNA transfection was used for quantitative expression of the two constructs (Teruel, et al. (1999) J. Neuroscience Methods 93: 37-48). […]

C[C@H](CCC(=O)O)C[C@H](C)C[C@H](C)C(=O)/C=C(\O)[C@H](C)C[C@H](C)C/C=C/[C@@H](C)[C@@H](O)[C@@H](C)[C@@H](O)C[C@@H]1CC[C@@](C)([C@H]2CC[C@@](C)([C@@H](C)O)O2)O1 [ionomycin]
change in fluorescence intensity of plasma membrane localized GFP (control) [1]: no significant change in fluorescence intensity
cell compliance of induced translocation [2]: 100%

N[C@@H](CCC(=O)O)C(=O)O [glutamate]
change in fluorescence intensity (PKCγ-GFP translocation) [3]: marked increase in fluorescence intensity

CCCC(=O)O[C@@H]1[C@@H](C)[C@@]2(O)[C@@H](C=C(CO)C[C@]3(O)C(=O)C(C)=C[C@@H]23)[C@@H]2C(C)(C)[C@]12OC(=O)CCC [PDBu]
plasma membrane fluorescence change, C1A-CaMKIIα and GFP-CaMKIIα [4]: marked increase in plasma membrane fluorescence
change in fluorescence intensity of plasma membrane localized GFP (control) [1]: no significant change in fluorescence intensity
